# Measured values: patent US20240285700A1, “COMBINATION OF AN ONCOLYTIC VIRUS, AN ANTI-PD-1 INHIBITOR AND AN ACTIVATOR OF THE INNATE IMMUNE SYSTEM FOR USE IN THE TREATMENT OF PROSTATE CANCER” (priority 2021, published 2024)
# Entries after “also recorded” stand apart in the source; their conditions may differ. Like-named read-outs stand apart in the source and are kept apart here.
# Tests used:
# sarcoma SA-1 = sarcoma SA-1 in syngeneic mice, glucan treatment; type: in vivo, A strain mice
# Source text: To decide whether the ß(1,3) glucan regression was peculiar to the Meth A tumor, we also performed experiments with sarcoma SA-1, syngeneic in A strain mice.
# lethal virus infection = assay: protection against lethal virus infection in mice; type: in vivo; settings: not published
# Source text: Following advanced experiment on carbohydrate chemistry at the Institute of Wood Chemistry at the University of Uppsala, the inventor was able to provide a water soluble, stimulatory aminated ß(1,3) glucan by treatment of natural, insoluble ß(1,3) with chloroacetaldehyde dimethyl acetal followed by reductive amination (3). The aminated ß(1,3) glucan derivative activated macrophages and thereby protected against otherwise lethal bacterial peritonitis in mice (4), as well as lethal virus infection in mice (not published).
# [1] = system: lethal bacterial peritonitis; settings: mice, cited from earlier work
# Meth A sarcoma = Meth A sarcoma implanted in the skin of mice, glucan treatment; type: in vivo, hybrid CB6 F1 (Balb/c×C 57131/6) mice
# Protocol: Meth A sarcoma was inoculated in the skin of hybrid CB6 F1 (Balb/c×C 57131/6) and grew progressive in immunized animals. […] When 5 mg of pure water-soluble aminated ß(1,3) glucan was injected intravenously or intraperitoneally on day 7, there was an almost immediate visible effect.
# macrophages = settings: more than forty polysaccharides tested; cited from earlier work
substance,measurement,setting,value
"aminated ß(1,3) glucan",cases in which tumors reappeared and resumed growth,sarcoma SA-1; after 18-21 days,about one third
same,tumor regression compared with Meth A results,"sarcoma SA-1; sarcoma SA-1, A strain mice",essentially identical
same,protection against lethal virus infection,lethal virus infection,protected
same,protection against otherwise lethal bacterial peritonitis,[1],protected
same,protection against otherwise lethal bacterial peritonitis,"[1]; listed as ß(1,3) glucan",sufficient to prevent a lethal outcome
same,tumor appearance 1 hour after injection,"Meth A sarcoma; 5 mg intravenously on day 7, saline tumors reddish and bulging",collapsed and whitish-grey
same,histological examination of tumor site,Meth A sarcoma; glucan-treated animals,acute inflammation around the tumor
same,"effect on tumor in non-immunized animals or treated on day 1, 3","Meth A sarcoma; non-immunized animals, or treatment on day 1, 3",little or no effect
same,condition of the animals after 200 days,Meth A sarcoma; one injection on day 7,unaffected and vital
same,tumor at day 18-21 after inoculation,Meth A sarcoma; one injection on day 7 (5 mg i.v. or i.p.),No visible tumor; also recorded: completely replaced by scar tissue
same,effect on tumor in TxB animals,"Meth A sarcoma; thymectomized, x-ray irradiated and bonemarrow transplanted, day 8-14",no effect
same,ability to stimulate macrophages in vitro,macrophages,stimulatory
